For assay [1], the system named is ENR+CD organoids (ISC to Paneth cell differentiation). Briefly: Primary screen: CCh-stimulated lysozyme secretion LYZ.S, 2.5-D 384-well ENR+CD organoid differentiation. Conditions: primary screen. Type of assay: cell-based, mouse. The text has this: (§1) High-throughput screening.
The test system of assay [2] is ENR+CD organoids. Briefly: Primary screen: ATP (CellTiter-Glo 3D, CTG) cell number/viability, 2.5-D 384-well ENR+CD organoids.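 Also: compounds given at plating and again on day 3 over a 6-day differentiation from ENR+CV stem-cell-enriched precursors, ATP measured on day 6, plate median as control.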 A general note: Cellular ATP, detected with luciferase, serves as a proxy for viable cell number.
The test system of assay [3] is ENR+CD organoids (ISC to Paneth cell differentiation). In words: Primary screen: basal (non-stimulated) lysozyme secretion LYZ.NS, 2.5-D 384-well ENR+CD organoid differentiation. Format: cell-based, mouse.
Excerpt: as §1

Setting [4] is: dose 0.08 uM, FC vs plate median.
The mark [5] stands for this setting: dose 0.40 uM, FC vs plate median.
Where [6] appears, read: dose 2.00 uM, FC vs plate median.
[7] abbreviates: dose 10.00 uM, FC vs plate median.
Setting [8] is: primary screen; dose 0.08 uM; FC vs plate median.
The mark [9] stands for this setting: primary screen; dose 0.40 uM; FC vs plate median.
Where [10] appears, read: primary screen; dose 2.00 uM; FC vs plate median.
Setting [11] is: primary screen; dose 10.00 uM; FC vs plate median.
The mark [12] stands for this setting: primary screen, dose 0.08 uM, standard z score.
Where [13] appears, read: primary screen, dose 0.40 uM, standard z score.
Where [14] appears, read: primary screen, dose 2.00 uM, standard z score.
[15] abbreviates: primary screen, dose 10.00 uM, standard z score.
Setting [16] is: primary screen, dose 0.08 uM, FC relative to plate median.
The mark [17] stands for this setting: primary screen, dose 0.40 uM, FC relative to plate median.
Setting [18] is: primary screen, dose 2.00 uM, FC relative to plate median.
[19] abbreviates: primary screen, dose 10.00 uM, FC relative to plate median.
Setting [20] is: primary screen, standard z score, dose 0.08 uM.
[21] abbreviates: primary screen, standard z score, dose 0.40 uM.
[22] abbreviates: primary screen, standard z score, dose 2.00 uM.
The mark [23] stands for this setting: primary screen, standard z score, dose 10.00 uM.

Turning to `NC(=O)c1ccc(I)c([N+](=O)[O-])c1` [Iniparib (BSI-201)], the results for the “Dose.FC.LYZ.S (log2 fold change)” value in assay [1] (dose 0.40 uM), in assay [1] (dose 2.00 uM) and in assay [1] (dose 10.00 uM) were 0.035, −0.001 and −0.010, respectively. The “Dose.FC.CTG (log2 fold change)” value amounted to 0.181 in assay [2] (primary screen, dose 0.40 uM); 0.157 in assay [2] (primary screen, dose 2.00 uM); 0.244 in assay [2] (primary screen, dose 10.00 uM). Further, the “Z.CTG (standard z score)” value is 0.432 in assay [2] (primary screen, dose 0.40 uM); 0.375 in assay [2] (primary screen, dose 2.00 uM); 0.583 in assay [2] (primary screen, dose 10.00 uM). Further, the “Dose.FC.LYZ.NS (log2 fold change)” value in assay [3] (primary screen, dose 0.40 uM) was 0.000; in assay [3] (primary screen, dose 2.00 uM), 0.016; in assay [3] (primary screen, dose 10.00 uM), −0.016. The “Z.LYZ.NS (standard z score)” value in assay [3] (primary screen, dose 0.40 uM) was 0.003; in assay [3] (primary screen, dose 2.00 uM) it was 0.138; in assay [3] (primary screen, dose 10.00 uM), −0.139.

As for `Cc1c(Cc2ccc3ccccc3n2)c2cc(F)ccc2n1CC(=O)O` [OC000459], the Dose.FC.LYZ.S turned out to be 0.090 log2 fold change in assay [1] (setting [4]), 0.199 log2 fold change in assay [1] (setting [5]), 0.130 log2 fold change in assay [1] (setting [6]) and 0.051 log2 fold change in assay [1] (setting [7]). Besides, the Dose.FC.CTG in assay [2] (setting [8]) is reported as 0.077 log2 fold change; in assay [2] (setting [9]), −0.065 log2 fold change; in assay [2] (setting [10]), 0.088 log2 fold change; in assay [2] (setting [11]) it was 0.088 log2 fold change. Besides, the Z.LYZ.NS in assay [3] (setting [12]) is listed as 0.416; in assay [3] (setting [13]), 0.461; in assay [3] (setting [14]) it was 0.507; in assay [3] (setting [15]), 0.287. Besides, the Dose.FC.LYZ.NS came out at 0.048 log2 fold change in assay [3] (setting [8]), 0.053 log2 fold change in assay [3] (setting [9]), 0.058 log2 fold change in assay [3] (setting [10]) and 0.033 log2 fold change in assay [3] (setting [11]).

As for `CCO[C@@H]1OC(=O)C[C@@H]1NC(=O)[C@@H]1CCCN1C(=O)[C@@H](NC(=O)c1ccc(N)c(Cl)c1)C(C)(C)C` [VX-765], the Dose.FC.LYZ.S in assay [1] (dose 0.08 uM) is listed as 0.091 log2 fold change; in assay [1] (dose 0.40 uM), 0.032 log2 fold change; in assay [1] (dose 2.00 uM), 0.061 log2 fold change; in assay [1] (dose 10.00 uM), 0.174 log2 fold change. Moreover, the Dose.FC.CTG was determined as 0.154 log2 fold change in assay [2] (primary screen, dose 0.08 uM); 0.232 log2 fold change in assay [2] (primary screen, dose 0.40 uM); 0.165 log2 fold change in assay [2] (primary screen, dose 2.00 uM); 0.254 log2 fold change in assay [2] (primary screen, dose 10.00 uM). The Dose.FC.LYZ.NS was found to be 0.043 log2 fold change in assay [3] (primary screen, dose 0.08 uM); 0.036 log2 fold change in assay [3] (primary screen, dose 0.40 uM); 0.059 log2 fold change in assay [3] (primary screen, dose 2.00 uM); 0.022 log2 fold change in assay [3] (primary screen, dose 10.00 uM). Moreover, the “Z.LYZ.NS (standard z score)” value was found to be 0.371 in assay [3] (primary screen, dose 0.08 uM); 0.317 in assay [3] (primary screen, dose 0.40 uM); 0.516 in assay [3] (primary screen, dose 2.00 uM); 0.190 in assay [3] (primary screen, dose 10.00 uM).

On to `Cc1ccc(-n2nccn2)c(C(=O)N2CCN(c3nc4cc(Cl)ccc4o3)CC[C@H]2C)c1` [Suvorexant (MK-4305)], for which the Dose.FC.LYZ.S in assay [1] (dose 0.08 uM, FC relative to plate median) was 0.186 log2 fold change; in assay [1] (dose 0.40 uM, FC relative to plate median), 0.142 log2 fold change; in assay [1] (dose 2.00 uM, FC relative to plate median) it was 0.101 log2 fold change; in assay [1] (dose 10.00 uM, FC relative to plate median), 0.131 log2 fold change. Besides, the Dose.FC.CTG is 0.192 log2 fold change in assay [2] (setting [16]), 0.255 log2 fold change in assay [2] (setting [17]), 0.375 log2 fold change in assay [2] (setting [18]) and 0.250 log2 fold change in assay [2] (setting [19]). Moreover, the Z.CTG came out at 0.458 in assay [2] (setting [12]), 0.609 in assay [2] (setting [13]), 0.895 in assay [2] (setting [14]) and 0.597 in assay [2] (setting [15]). The Dose.FC.LYZ.NS in assay [3] (setting [16]) is 0.204 log2 fold change; in assay [3] (setting [17]), 0.123 log2 fold change; in assay [3] (setting [18]) it was 0.123 log2 fold change; in assay [3] (setting [19]), 0.077 log2 fold change. The Z.LYZ.NS was 1.775 in assay [3] (setting [12]), 1.073 in assay [3] (setting [13]), 1.073 in assay [3] (setting [14]) and 0.670 in assay [3] (setting [15]).

For `O=C(O)c1cc2cccc([N+](=O)[O-])c2[nH]1` [CRT0044876], the Dose.FC.LYZ.S in assay [1] (dose 0.08 uM) is recorded as −0.002 log2 fold change; in assay [1] (dose 0.40 uM) it was 0.055 log2 fold change; in assay [1] (dose 2.00 uM) it was 0.014 log2 fold change; in assay [1] (dose 10.00 uM), −0.061 log2 fold change. For the same compound, the Dose.FC.CTG in assay [2] (primary screen, dose 0.08 uM) is −0.171 log2 fold change; in assay [2] (primary screen, dose 0.40 uM), −0.040 log2 fold change; in assay [2] (primary screen, dose 2.00 uM) it was −0.081 log2 fold change; in assay [2] (primary screen, dose 10.00 uM) it was −0.099 log2 fold change. Moreover, the Z.CTG in assay [2] (setting [20]) is listed as −0.410; in assay [2] (setting [21]) it was −0.096; in assay [2] (setting [22]), −0.192; in assay [2] (setting [23]), −0.237. Also, the Dose.FC.LYZ.NS was 0.016 log2 fold change in assay [3] (primary screen, dose 0.08 uM); 0.034 log2 fold change in assay [3] (primary screen, dose 0.40 uM); 0.047 log2 fold change in assay [3] (primary screen, dose 2.00 uM); 0.032 log2 fold change in assay [3] (primary screen, dose 10.00 uM). For the same compound, the Z.LYZ.NS in assay [3] (setting [20]) is listed as 0.135; in assay [3] (setting [21]), 0.298; in assay [3] (setting [22]), 0.408; in assay [3] (setting [23]), 0.278.

Consider `O=C(NOCC1CC1)c1ccc(F)c(F)c1Nc1ccc(I)cc1Cl` [PD184352 (CI-1040)], for which the Dose.FC.LYZ.S is −0.019 log2 fold change in assay [1] (setting [4]), −0.047 log2 fold change in assay [1] (setting [5]), −0.178 log2 fold change in assay [1] (setting [6]) and −0.239 log2 fold change in assay [1] (setting [7]). Further, the Z.CTG in assay [2] (setting [12]) is 0.874; in assay [2] (setting [13]), 0.624; in assay [2] (setting [14]), −0.506; in assay [2] (setting [15]), −1.901. Besides, the Dose.FC.CTG is reported as 0.366 log2 fold change in assay [2] (setting [8]), 0.261 log2 fold change in assay [2] (setting [9]), −0.212 log2 fold change in assay [2] (setting [10]) and −0.796 log2 fold change in assay [2] (setting [11]). The Z.LYZ.NS in assay [3] (setting [12]) was −0.162; in assay [3] (setting [13]), −0.458; in assay [3] (setting [14]), −1.176; in assay [3] (setting [15]), −1.011. Besides, the Dose.FC.LYZ.NS was −0.019 log2 fold change in assay [3] (setting [8]), −0.053 log2 fold change in assay [3] (setting [9]), −0.135 log2 fold change in assay [3] (setting [10]) and −0.116 log2 fold change in assay [3] (setting [11]).

With `NC(=O)c1ncn([C@@H]2O[C@H](CO)[C@@H](O)[C@H]2O)c1N` [Acadesine], the Dose.FC.LYZ.S in assay [1] (dose 0.08 uM) is 0.004 log2 fold change; in assay [1] (dose 0.40 uM), −0.012 log2 fold change; in assay [1] (dose 2.00 uM), 0.053 log2 fold change; in assay [1] (dose 10.00 uM) it was −0.102 log2 fold change. For the same compound, the Dose.FC.CTG in assay [2] (primary screen, dose 0.08 uM) was 0.094 log2 fold change; in assay [2] (primary screen, dose 0.40 uM), 0.173 log2 fold change; in assay [2] (primary screen, dose 2.00 uM), −0.005 log2 fold change; in assay [2] (primary screen, dose 10.00 uM), 0.076 log2 fold change. In addition, the Dose.FC.LYZ.NS in assay [3] (primary screen, dose 0.08 uM) is given as 0.023 log2 fold change; in assay [3] (primary screen, dose 0.40 uM), −0.016 log2 fold change; in assay [3] (primary screen, dose 2.00 uM), 0.016 log2 fold change; in assay [3] (primary screen, dose 10.00 uM) it was −0.070 log2 fold change. The “Z.LYZ.NS (standard z score)” value is reported as 0.198 in assay [3] (primary screen, dose 0.08 uM); −0.137 in assay [3] (primary screen, dose 0.40 uM); 0.140 in assay [3] (primary screen, dose 2.00 uM); −0.607 in assay [3] (primary screen, dose 10.00 uM).
